Laboratory results as given in US20220142941A1, “COMBINATION THERAPEUTIC REGIMENS WITH 1,6-DIBROMO-1,6-DIDEOXY-DULCITOL” (Eleison Pharmaceuticals LLC, priority 2019, published 2022).
Read-outs that look alike come from different tables or passages of the source.

Key:
T98 glioma cell line = assay: Cell Titer-Glo viability, DBD concentration range; type: cell-based, human; settings: 5 and 8 days
Experimental: (§1) These lines were seeded in triplicate in a 96-wells plate, in a dilution of 500 cells/well. […] FIGS. 1 and 2 show the histogram results of the two used glioma cell lines, T98 and U373. Specifically, the histograms are normalized in percentages, where the non-treated cells have a 100% survival. […] However, a concentration range between 1 and 100 μM was selected and was next tested on twenty patient-derived serum-free cell cultures.

U373 glioma cell line = assay: Cell Titer-Glo viability, DBD concentration range; type: cell-based, human; settings: 5 and 8 days
Experimental: as §1

GS102peri = assay: DBD dose-response IC50, patient derived GSC culture; type: cell-based; settings: Homo sapiens
Experimental: (§2) To assess the effects of crystalline DBD polymorph on the growth of patient derived GSC's (Glioma serum-free Stem-cell like cultures), dose-response assays were performed on twenty cultures. […] A dose-dependent decrease in viability was found, and the IC50 values of could be calculated using linear regression analysis. Specifically, looking at Table 1, a high variation of different IC50 values is seen in this panel of patient derived GSC's. In addition, no correlation is seen between the MGMT promotor methylation status and the amount of the IC50 value.

GS104peri = assay: as above; type: cell-based; settings: Homo sapiens
Experimental: as §2

GS184 = assay: as above; type: cell-based; settings: Homo sapiens
Experimental: as §2

GS186core = assay: as above; type: cell-based; settings: Homo sapiens
Experimental: as §2

GS186peri = assay: as above; type: cell-based; settings: Homo sapiens
Experimental: as §2

GS203 = assay: as above; type: cell-based; settings: Homo sapiens
Experimental: as §2

GS224 = assay: as above; type: cell-based; settings: Homo sapiens
Experimental: as §2

GS245 = assay: as above; type: cell-based; settings: Homo sapiens
Experimental: as §2

GS249 = assay: as above; type: cell-based; settings: Homo sapiens
Experimental: as §2

GS257 = assay: as above; type: cell-based; settings: Homo sapiens
Experimental: as §2

GS261 = assay: as above; type: cell-based; settings: Homo sapiens
Experimental: as §2

GS279core = assay: as above; type: cell-based; settings: Homo sapiens, 120 h, read-out: IC50 5 d
Experimental: as §2

GS279peri = assay: as above; type: cell-based; settings: Homo sapiens
Experimental: as §2

GS281 = assay: as above; type: cell-based; settings: Homo sapiens
Experimental: as §2

GS289 = assay: as above; type: cell-based; settings: Homo sapiens
Experimental: as §2

GS304 = assay: as above; type: cell-based; settings: Homo sapiens
Experimental: as §2

GS323peri = assay: as above; type: cell-based; settings: Homo sapiens, 120 h, passage 17, day 5, read-out: IC50 5 d
Experimental: as §2

GS324core = assay: as above; type: cell-based; settings: Homo sapiens
Experimental: as §2

GS359 = assay: as above; type: cell-based; settings: Homo sapiens
Experimental: as §2

GS365 = assay: as above; type: cell-based; settings: Homo sapiens
Experimental: as §2

[1] = system: panel of 20 patient derived cell cultures; assay: DBD combination treatment, overall result over the panel; type: cell-based, human
Experimental: Crystalline DBD polymorph treatment was combined with chemotherapy, radiotherapy and targeted inhibitors to determine whether the crystalline DBD polymorph form could: enhance efficacy of the conventional therapies; enhance efficacy when combined with newer ‘targeted’ therapies; or would make (a subset of) cultures more sensitive to this treatment.
Therefore, cultures were treated with: • a.

[2] = reported in the literature; cited from earlier work
[3] = Kellner et al., Nature (1967); cited from earlier work
[4] = 120 h, passage 14, day 5, read-out: IC50 5 d
[5] = passage 14, day 8, read-out: IC50 8 d

- IC50 (GS102peri; 120 h, passage 18, day 5, read-out: IC50 5 d): 41.8 µM
- IC50 (GS102peri; passage 18, day 8, read-out: IC50 8 d): 11.9 µM
- IC50 (GS104peri; 120 h, passage 22, day 5, read-out: IC50 5 d): 3480 nM
- IC50 (GS104peri; passage 22, day 8, read-out: IC50 8 d): 570 nM
- IC50 (GS184; 120 h, GS184, passage 15, day 5, read-out: IC50 5 d): 18.6 µM
- IC50 (GS184; GS184, passage 15, day 8, read-out: IC50 8 d): 1.96 µM
- IC50 (GS186core; [4]): 4.56 µM
- IC50 (GS186core; [5]): 1.94 µM
- IC50 (GS186peri; [4]): 4.24 µM
- IC50 (GS186peri; [5]): 2.28 µM
- IC50 (GS203; 120 h, GS203, passage 20, day 5, read-out: IC50 5 d): 28.7 µM
- IC50 (GS203; GS203, passage 20, day 8, read-out: IC50 8 d): 10.5 µM
- IC50 (GS224; 120 h, GS224, passage 17, day 5, read-out: IC50 5 d): 33.3 µM
- IC50 (GS224; GS224, passage 17, day 8, read-out: IC50 8 d): 10.9 µM
- IC50 (GS245; 120 h, GS245, passage 13, day 5, read-out: IC50 5 d): 6.58 µM
- IC50 (GS245; GS245, passage 13, day 8, read-out: IC50 8 d): 3.35 µM
- IC50 (GS249; 120 h, GS249, passage 18, day 5, read-out: IC50 5 d): 630 nM
- IC50 (GS249; GS249, passage 18, day 8, read-out: IC50 8 d): 240 nM
- IC50 (GS257; 120 h, GS257, passage 13, day 5, read-out: IC50 5 d): 11.9 µM
- IC50 (GS257; GS257, passage 13, day 8, read-out: IC50 8 d): 10.2 µM
- IC50 (GS261; 120 h, GS261, passage 11, day 5, read-out: IC50 5 d): 3440 nM
- IC50 (GS261; GS261, passage 11, day 8, read-out: IC50 8 d): 1850 nM
- IC50 (GS279core; GS279core (1), passage 13, day 5): 3.6 µM
- IC50 (GS279core; GS279core (2), passage 16, day 5): 7.64 µM
- IC50 (GS279peri; 120 h, passage 13, day 5, read-out: IC50 5 d): 31.5 µM
- IC50 (GS279peri; passage 13, day 8, read-out: IC50 8 d): 8.33 µM
- IC50 (GS281; 120 h, GS281, passage 13, day 5, read-out: IC50 5 d): 10.6 µM
- IC50 (GS281; GS281, passage 13, day 8, read-out: IC50 8 d): 5.55 µM
- IC50 (GS289; 120 h, GS289, passage 13, day 5, read-out: IC50 5 d): 6.88 µM
- IC50 (GS289; GS289, passage 13, day 8, read-out: IC50 8 d): 3.22 µM
- IC50 (GS304; 120 h, GS304, passage 14, day 5, read-out: IC50 5 d): 106 µM
- IC50 (GS304; GS304, passage 14, day 8, read-out: IC50 8 d): 12.2 µM
- IC50 (GS323peri): 4.75 µM
- IC50 (GS324core; 120 h, passage 16, day 5, read-out: IC50 5 d): 8.96 µM
- IC50 (GS324core; passage 16, day 8, read-out: IC50 8 d): 2.98 µM
- IC50 (GS359; 120 h, GS359, passage 14, day 5, read-out: IC50 5 d): 11.8 µM
- IC50 (GS359; GS359, passage 14, day 8, read-out: IC50 8 d): 7.27 µM
- IC50 (GS365; 120 h, GS365, passage 14, day 5, read-out: IC50 5 d): 14.6 µM
- IC50 (GS365; GS365, passage 14, day 8, read-out: IC50 8 d): 5.69 µM
Structure (SMILES): O[C@H]([C@H](O)[C@@H](O)CBr)[C@H](O)CBr [DBD, 1,6-dibromo-1,6-dideoxy-dulcitol]
- effect on cell viability (percentage of living cells vs non-treated) (T98 glioma cell line; 0.1 μM and 0.3 μM DBD): not effective
- effect on cell viability (percentage of living cells vs non-treated) (T98 glioma cell line; 300 μM DBD): not viable
- effect on cell viability (percentage of living cells vs non-treated) (U373 glioma cell line; 0.1 μM and 0.3 μM DBD): not effective
- effect on cell viability (percentage of living cells vs non-treated) (U373 glioma cell line; 300 μM DBD): not viable
- enhancement of the cytotoxic effect ([1]; combined with radiation treatment): 30%
- enhancement of the cytotoxic effect ([1]; combined with temozolomide): 50%
- solubility [2]: poorly soluble
- antitumor effect [3]: selective a vigorous antitumor effect
